Measured values from patent US9447136B2, “Semisynthetic derivatives of Nystatin A1” (BLIRT S.A., priority 2012, dated 2016).

Tests used:
Experiment in all cases: Antifungal activity in vitro, serial dilution in RPMI 1640
Type in all cases: cell-based
[1] = tested on: Saccharomyces cerevisiae ATCC 9763; conditions: Table 2A; RPMI 1640, pH 7.0; A531 at most 20% of control
Procedure: (§1) For the determination of antifungal activity in vitro we used method of serial dilution in buffered medium RPMI 1640, pH 7.0, in a 96-wells microplates, according to the standard procedure (National Committee for Clinical Laboratory Standards. Reference method for broth dilution antifungal susceptibility testing of yeast, approved standard, 2nd ed. M27-A2 vol. 22 Wayne, Pa., 2002). The optical density of cells suspension was measured using a microplates reader (Victor^3, Perkin-Elmer) at the wavelength λ=531 nm (A531). On the basis of obtained results the diagrams of relation between A531 values and concentration of examined compound were made. From these graphs, the IC50 values were read, which were the interpolated concentrations of a tested compound, at which the A531 value was exactly 50% of the A531 value for the control sample. Moreover, MIC values, that are the lowest concentration of tested compound at which the A531 value were at most 20% of the A531 value measured for the control sample.

[2] = tested on: Candida krusei DSM 6128; conditions: Table 2A; RPMI 1640, pH 7.0
Procedure: as §1

[3] = tested on: Candida albicans ATCC 10231; conditions: Table 2A, RPMI 1640, pH 7.0; for Antifungal activity Candida albicans ATCC 10231 IC50: A531 50% of control; for Antifungal activity Candida albicans ATCC 10231 MIC: A531 at most 20% of control
Procedure: as §1

[4] = tested on: Candida tropicalis KKP 334; conditions: Table 2A; RPMI 1640, pH 7.0
Procedure: as §1

[5] = tested on: Candida glabrata DSM 11226; conditions: Table 2A; RPMI 1640, pH 7.0
Procedure: as §1

[6] = tested on: Candida lusitaniae DSM 70102; conditions: Table 2A; RPMI 1640, pH 7.0
Procedure: as §1

Compound | Antifungal activity Saccharomyces cerevisiae ATCC 9763 MIC [1] [µg/mL] | Antifungal activity Candida krusei DSM 6128 MIC [2] [µg/mL] | Antifungal activity Candida albicans ATCC 10231 IC50 [3] [µg/mL] | Antifungal activity Candida albicans ATCC 10231 MIC [3] [µg/mL] | Antifungal activity Candida tropicalis KKP 334 MIC [4] [µg/mL] | Antifungal activity Candida glabrata DSM 11226 MIC [5] [µg/mL] | Antifungal activity Candida lusitaniae DSM 70102 MIC [6] [µg/mL]
C[C@@H]1[C@H](O)[C@@H](C)/C=C/C=C/CC/C=C/C=C/C=C/C=C/[C@H](O[C@@H]2O[C@H](C)[C@@H](O)[C@H](NC3CC(=O)N(CCCN(C)C)C3=O)[C@@H]2O)C[C@@H]2O[C@](O)(C[C@@H](O)C[C@@H](O)[C@H](O)CC[C@@H](O)C[C@@H](O)CC(=O)O[C@H]1C)C[C@H](O)[C@H]2C(=O)O (stereo partly shown) [Compound N6, N—[N′-3-(N″,N″-dimethylamino)propylsuccinimidyl]nystatin A1] | 8 | 16 | 5.52 | 8 | 8 | 16 | 4
CC1OC(O[C@H]2/C=C/C=C/C=C/C=C/CC/C=C/C=C/[C@H](C)[C@@H](O)[C@@H](C)[C@H](C)OC(=O)C[C@H](O)C[C@H](O)C[C@H](O)CC[C@@H](O)[C@H](O)CC3(O)C[C@H](O)[C@@H](C(=O)O)[C@H](C2)O3)C(O)C(NC2CC(=O)N(CCN(C)C)C2=O)C1O (stereo partly shown) [Compound N7, N—[N′-2-(N″,N″-dimethylamino)ethylsuccinimidyl]nystatin A1] | 8 | 16 | 3.99 | 8 | 8 | 8 | 4
CC1OC(O[C@H]2/C=C/C=C/C=C/C=C/CC/C=C/C=C/[C@H](C)[C@@H](O)[C@@H](C)[C@H](C)OC(=O)C[C@H](O)C[C@H](O)C[C@H](O)CC[C@@H](O)[C@H](O)CC3(O)C[C@H](O)[C@@H](C(=O)O)[C@H](C2)O3)C(O)C(NC2CC(=O)N(CCN3CCN(C)CC3)C2=O)C1O (stereo partly shown) [Compound N9, N—[N′-2-(4-methylpiperazin-1-yl)ethylsuccinimidyl]nystatin A1] | 8 | 16 | 5.62 | 8 | 8 | 16 | 4
CC1OC(O[C@H]2/C=C/C=C/C=C/C=C/CC/C=C/C=C/[C@H](C)[C@@H](O)[C@@H](C)[C@H](C)OC(=O)C[C@H](O)C[C@H](O)C[C@H](O)CC[C@@H](O)[C@H](O)CC3(O)C[C@H](O)[C@@H](C(=O)O)[C@H](C2)O3)C(O)C(NC2CC(=O)N(CC(C)(C)CN(C)C)C2=O)C1O (stereo partly shown) [Compound N10, N—[N′-3-(N″,N″-dimethylamino)-2,2-dimethylpropylsuccinimidyl]nystatin A1] | 8 | 16 | 5.47 | 8 | 8 | 16 | 4
C[C@@H]1[C@H](O)[C@@H](C)/C=C/C=C/CC/C=C/C=C/C=C/C=C/[C@H](O[C@@H]2O[C@H](C)[C@@H](O)[C@H](NC(=S)NCCN3CCN(C)CC3)[C@@H]2O)C[C@@H]2O[C@](O)(C[C@@H](O)C[C@@H](O)[C@H](O)CC[C@@H](O)C[C@@H](O)CC(=O)O[C@H]1C)C[C@H](O)[C@H]2C(=O)O [Compound N15, N-{3-[2-(4-methylpiperazin-1-yl)ethyl]thioureidyl}nystatin A1] | 8 | 16 | 5.74 | 8 | 8 | 16 | 4
C[C@@H]1[C@H](O)[C@@H](C)/C=C/C=C/CC/C=C/C=C/C=C/C=C/[C@H](O[C@@H]2O[C@H](C)[C@@H](O)[C@H](NC(=S)NCCN3CCCC3)[C@@H]2O)C[C@@H]2O[C@](O)(C[C@@H](O)C[C@@H](O)[C@H](O)CC[C@@H](O)C[C@@H](O)CC(=O)O[C@H]1C)C[C@H](O)[C@H]2C(=O)O [Compound N16, N-{3-[2-(pyrrolidin-1-yl)ethyl]thioureidyl}nystatin A1] | 4 | 8 | 3.04 | 4 | 4 | 8 | 4
C[C@@H]1[C@H](O)[C@@H](C)/C=C/C=C/CC/C=C/C=C/C=C/C=C/[C@H](O[C@@H]2O[C@H](C)[C@@H](O)[C@H](NC(=S)NCCN(C)C)[C@@H]2O)C[C@@H]2O[C@](O)(C[C@@H](O)C[C@@H](O)[C@H](O)CC[C@@H](O)C[C@@H](O)CC(=O)O[C@H]1C)C[C@H](O)[C@H]2C(=O)O [Compound N18, N-{3-[2-(N,N-dimethylamino)ethyl]thioureidyl}nystatin A1] | 4 | 8 | 2.97 | 4 | 4 | 8 | 4
CCN(CC1(O)OCC(O)C(O)C1O)C1C(O)C(C)OC(OC2C=CC=CC=CC=CCCC=CC=CC(C)C(O)C(C)C(C)OC(=O)CC(O)CC(O)CC(O)CCC(O)C(O)CC3(O)CC(O)C(C(=O)O)C(C2)O3)C1O (stereo not shown) [Compound N29, N-fructosyl-N-ethylnystatin A1] | 8 | 16 | 3.56 | 8 | 8 | 16 | 8
CC1C=CC=CCCC=CC=CC=CC=CC(OC2OC(C)C(O)C(N(CCCN(C)C)CC3(O)OCC(O)C(O)C3O)C2O)CC2OC(O)(CC(O)C(O)CCC(O)CC(O)CC(O)CC(=O)OC(C)C(C)C1O)CC(O)C2C(=O)O (stereo not shown) [Compound N30, N-fructosyl-N-[3-(N′,N′-dimethylamin)propyl]nystatin A1] | 8 | 16 | 5.79 | 8 | 16 | 16 | 8
N,N-diethylnystatin A1 [Compound N24] | 8 | 16 | 3.82 | 8 | 8 | 16 | 4
N-{3-[2-(morpholin-1-yl)ethyl]thioureidyl}nystatin A1 [Compound N13] | 8 | 16 | 3.88 | 8 | 8 | 16 | 8
N-{3-[2-(piperidin-1-yl)ethyl]thioureidyl}nystatin A1 [Compound N12] | 8 | 16 | 4.20 | 8 | 8 | 8 | 4
N-{3-[3-(imidazo-1-yl)propyl]thioureidyl}nystatin A1 [Compound N20] | 8 | 16 | 6.47 | 8 | 8 | 16 | 8
